Measured values published in patent US20250352615A1, “COMPOSITIONS AND METHODS FOR THE MODULATION OF PIEZO1 AND TRPV4” (Duke University, priority 2021, published 2025).

Columns and labels:
Piezo1 [1] = molecular target: T1, Piezo1 (Mus musculus, UniProt E2JF22); assay: Calcium imaging of Piezo1-mediated [Ca2+]i in mouse PSCs; assay type: cell-based
T1 construct: endogenous in cells; host or cells: freshly isolated mouse pancreatic acini (WT = Piezo1 fl/fl on a C57BL/6J background)
Method: (§1) Mouse and human PSCs were isolated using collagenase digestion. Modified Krebs Henseleit Buffer (KHB) solution (100 mL) was prepared as previously described by Romac et al., Nat. Commun. 9(1):1715 (2018). Pancreatic tissue was digested with 2 mg of collagenase NB 8 (SERVA, catalog 17456) dissolved in 10 mL of modified KHB solution containing 1 mg soybean trypsin inhibitor (SBTI 1-S; Millipore Sigma, catalog T9003) and 20 mg BSA (Thermo Fisher Scientific; BP1600-100). Digestion solution (5 mL) was used to inflate the pancreas. Pancreas with 5 mL of digestion solution was incubated in a shaking water bath for 10 minutes at 37° C. The solution was then discarded. The pancreas tissue was cut into small pieces and digested with fresh 5 mL digestion buffer. Tissue was incubated in a shaking water bath for 40 minutes at 37° C. The cells were then separated from tissue by pipetting up-down with a 10 mL pipette and passed sequentially through a 70 μm and a 40 μm cell strainer. The filtrate was centrifuged at 150×g for 3 minutes at room temperature. The cells were washed with 10 mL Leibovitz's media (Thermo Fisher Scientific, catalog 11415-064), passed through a 20 μm filter, and centrifuged at 80×g for 3 minutes at room temperature. The supernate was removed, and isolated stellate cells were plated on a thin-layered Matrigel-coated glass bottom culture plate (MatTek, P35G-0-14-C). Before plating the cells, Matrigel solution (Corning, catalog 354234) at a ratio of 1.5:100 DMEM/F12 (Thermo Fisher Scientific, catalog 11330-032) was poured onto the culture plate and incubated for 2 hr at 37° C. to form a thin layer of Matrigel coating. Matrigel mixture was removed, and the plate was washed with PBS before cells were plated. Cell culture media, DMEM/F12 with 5% FBS was used for mouse stellate cells. Fresh, human pancreatic tissue was digested with collagenase as described above with modifications. Collagenase (2.5 mg) in 10 mL of modified KHB solution was used for digestion. The digested tissues were filtered through a 100 μm cell strainer. The cells were cultured with DMEM/F12 with 10% FBS in a Matrigel-coated plate. After 24 hr, the cell media was replaced with fresh media to remove unattached and dead cells. After 2 days, cells were immunostained for GFAP and used for experiments. Perinuclear fat droplets were stained with BODIPY 493/503 (4,4-Difluoro-1,3,5,7,8-Pentamethyl-4-Bora-3a,4a-Diaza-s-Indacene; Invitrogen, catalog D3922) to confirm stellate cell quiescence. The cell viability following Yoda1 treatment was analyzed using the Live/Dead cell imaging kit (Thermo Fisher Scientific, catalog R37601). RNAs were isolated using the RiboPure Kit (Invitrogen, catalog AM1924) according to manufacturer's instructions.
(§2) Fluid shear stress and mechanical pushing applied to stellate cells were achieved as previously described by Wang et al., J. Clin. Invest. 126(12): 4527-4536 (2016). Parallel-plate fluid flow chambers (μ-Slide I 0.4 Luer, or μ-Slide I 0.2 Luer from Ibidi) were used for fluid shear stress experiments. The fluid shear stress (T) was calculated using the formula: τ=η×[…] φ for μ-Slide I 0.4 Luer and τ=η×330.4 φ for μ-Slide I 0.2 Luer, where r represents viscosity of the medium and φ represents flow rate (according to the manufacturer's instructions, Ibidi). Mechanical pushing was achieved by applying a blunt borosilicate glass pipette once to the cell membrane with a deflection of 2-3 μm for 1 second using a micromanipulator (World Precision Instruments).
Calcium 6-QF (Molecular Devices) dye was used for live-cell calcium imaging as described by Romac et al., Nat. Commun. 9(1):1715 (2018). Cells were imaged in HBSS buffer with 2 mM Ca^2+. Faintly and highly fluorescent loaded cells were excluded from analysis. […]

pancreatic acini = assay: Trypsinogen activation in pancreatic acini (BZiPAR); assay type: cell-based, mouse
Method: To visualize Piezo1-induced trypsinogen activation, acini were loaded with active trypsin enzyme substrate BZiPAR (10 μM). Na-HEPES buffer with 2 mM Ca^2+ was used during imaging. A Zeiss Axio observer Z1 with a high-sensitivity EMCCD camera with a ×40/0.75 EC-Plan-NeoFluar DIC objective was used to capture the Z-stack images with stack thickness of 3 μm at an interval of 12 seconds. The BZiPAR fluorescent wavelength Ex/Em was 498/521 nm. BZiPAR was excited at 470-510 nm and emission collected at 495-550 nm. The captured images were analyzed with MetaMorph software (Molecular Devices).

Piezo1 [2] = molecular target: T2, Piezo1 (Homo sapiens, UniProt Q92508); assay: Calcium imaging of Piezo1-mediated [Ca2+]i in human PSCs; assay type: cell-based; settings: Yoda1 25 μM, quiescent PSCs
T2 construct: Fresh, human pancreatic tissue was digested with collagenase as described above with modifications; endogenous in cells; host or cells: primary human pancreatic stellate cells from fresh human pancreatic tissue
T2 sequence (Q92508 whole entry): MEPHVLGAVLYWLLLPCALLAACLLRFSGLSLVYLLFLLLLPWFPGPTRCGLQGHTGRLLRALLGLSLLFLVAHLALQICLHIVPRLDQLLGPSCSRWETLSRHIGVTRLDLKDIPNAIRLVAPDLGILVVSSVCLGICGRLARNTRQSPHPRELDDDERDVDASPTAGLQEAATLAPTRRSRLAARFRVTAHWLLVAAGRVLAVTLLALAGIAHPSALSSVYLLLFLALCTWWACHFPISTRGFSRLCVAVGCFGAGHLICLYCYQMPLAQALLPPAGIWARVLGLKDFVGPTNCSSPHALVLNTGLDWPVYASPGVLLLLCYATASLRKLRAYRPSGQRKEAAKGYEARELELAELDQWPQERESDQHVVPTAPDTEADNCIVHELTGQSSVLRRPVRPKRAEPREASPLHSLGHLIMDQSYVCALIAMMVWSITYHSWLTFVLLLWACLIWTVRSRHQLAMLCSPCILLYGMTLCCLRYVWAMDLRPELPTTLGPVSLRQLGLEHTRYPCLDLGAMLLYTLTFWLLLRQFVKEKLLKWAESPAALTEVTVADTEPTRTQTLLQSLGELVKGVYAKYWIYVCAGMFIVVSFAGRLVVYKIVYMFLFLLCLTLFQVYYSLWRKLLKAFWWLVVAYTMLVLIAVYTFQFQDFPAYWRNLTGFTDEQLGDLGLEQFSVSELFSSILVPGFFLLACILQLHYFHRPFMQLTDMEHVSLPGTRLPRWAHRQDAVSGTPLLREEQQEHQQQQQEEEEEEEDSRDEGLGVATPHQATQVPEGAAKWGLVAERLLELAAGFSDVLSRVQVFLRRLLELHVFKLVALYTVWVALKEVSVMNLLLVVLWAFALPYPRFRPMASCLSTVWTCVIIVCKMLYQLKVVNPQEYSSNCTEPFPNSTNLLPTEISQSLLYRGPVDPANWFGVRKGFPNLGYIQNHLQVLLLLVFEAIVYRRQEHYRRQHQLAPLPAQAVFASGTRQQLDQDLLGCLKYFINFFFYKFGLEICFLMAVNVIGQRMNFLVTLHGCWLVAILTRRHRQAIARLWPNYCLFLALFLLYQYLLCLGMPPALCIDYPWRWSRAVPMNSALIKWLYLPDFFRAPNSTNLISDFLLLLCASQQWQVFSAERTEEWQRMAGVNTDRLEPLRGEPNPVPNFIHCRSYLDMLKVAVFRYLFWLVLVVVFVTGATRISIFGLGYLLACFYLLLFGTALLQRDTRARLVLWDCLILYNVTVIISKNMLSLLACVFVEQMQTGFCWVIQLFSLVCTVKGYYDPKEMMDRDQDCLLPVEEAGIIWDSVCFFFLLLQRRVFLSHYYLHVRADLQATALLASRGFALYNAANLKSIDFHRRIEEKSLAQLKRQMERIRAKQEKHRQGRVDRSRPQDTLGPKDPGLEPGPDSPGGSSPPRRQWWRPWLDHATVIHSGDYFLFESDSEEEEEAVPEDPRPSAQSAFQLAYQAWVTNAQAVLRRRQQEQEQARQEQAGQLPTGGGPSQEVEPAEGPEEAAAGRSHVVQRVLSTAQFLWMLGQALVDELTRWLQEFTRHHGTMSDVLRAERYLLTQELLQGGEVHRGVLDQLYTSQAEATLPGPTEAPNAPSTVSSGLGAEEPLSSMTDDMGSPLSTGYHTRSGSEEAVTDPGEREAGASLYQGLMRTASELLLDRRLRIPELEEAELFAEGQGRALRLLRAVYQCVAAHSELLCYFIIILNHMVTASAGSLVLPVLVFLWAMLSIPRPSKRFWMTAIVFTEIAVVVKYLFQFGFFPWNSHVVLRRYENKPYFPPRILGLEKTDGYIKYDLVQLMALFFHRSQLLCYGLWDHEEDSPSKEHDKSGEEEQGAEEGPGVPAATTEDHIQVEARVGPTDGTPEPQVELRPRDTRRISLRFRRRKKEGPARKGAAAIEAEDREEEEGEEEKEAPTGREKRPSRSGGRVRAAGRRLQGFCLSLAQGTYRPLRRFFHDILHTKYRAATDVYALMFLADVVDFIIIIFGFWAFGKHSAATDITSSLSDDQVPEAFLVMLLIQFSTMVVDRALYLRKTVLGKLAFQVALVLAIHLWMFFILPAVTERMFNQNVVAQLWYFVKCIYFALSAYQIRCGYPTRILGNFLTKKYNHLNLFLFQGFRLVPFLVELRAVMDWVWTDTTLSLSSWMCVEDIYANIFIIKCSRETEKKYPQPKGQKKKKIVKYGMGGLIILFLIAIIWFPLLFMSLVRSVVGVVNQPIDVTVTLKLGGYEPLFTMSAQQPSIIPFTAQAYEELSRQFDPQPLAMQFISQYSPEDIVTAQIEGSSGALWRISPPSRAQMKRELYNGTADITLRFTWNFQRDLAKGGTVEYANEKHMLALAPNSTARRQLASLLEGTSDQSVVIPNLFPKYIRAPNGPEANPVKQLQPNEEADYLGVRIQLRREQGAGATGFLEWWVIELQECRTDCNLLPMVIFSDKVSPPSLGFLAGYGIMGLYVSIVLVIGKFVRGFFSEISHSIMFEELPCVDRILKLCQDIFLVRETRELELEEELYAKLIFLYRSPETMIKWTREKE
Method: (§3) Mouse and human PSCs were isolated using collagenase digestion. Modified Krebs Henseleit Buffer (KHB) solution (100 mL) was prepared as previously described by Romac et al., Nat. Commun. 9(1):1715 (2018). Pancreatic tissue was digested with 2 mg of collagenase NB 8 (SERVA, catalog 17456) dissolved in 10 mL of modified KHB solution containing 1 mg soybean trypsin inhibitor (SBTI 1-S; Millipore Sigma, catalog T9003) and 20 mg BSA (Thermo Fisher Scientific; BP1600-100). Digestion solution (5 mL) was used to inflate the pancreas. Pancreas with 5 mL of digestion solution was incubated in a shaking water bath for 10 minutes at 37° C. The solution was then discarded. The pancreas tissue was cut into small pieces and digested with fresh 5 mL digestion buffer. Tissue was incubated in a shaking water bath for 40 minutes at 37° C. The cells were then separated from tissue by pipetting up-down with a 10 mL pipette and passed sequentially through a 70 μm and a 40 μm cell strainer. The filtrate was centrifuged at 150×g for 3 minutes at room temperature. The cells were washed with 10 mL Leibovitz's media (Thermo Fisher Scientific, catalog 11415-064), passed through a 20 μm filter, and centrifuged at 80×g for 3 minutes at room temperature. The supernate was removed, and isolated stellate cells were plated on a thin-layered Matrigel-coated glass bottom culture plate (MatTek, P35G-0-14-C). […] The cell viability following Yoda1 treatment was analyzed using the Live/Dead cell imaging kit (Thermo Fisher Scientific, catalog R37601). […]
Fluid shear stress and mechanical pushing applied to stellate cells were achieved as previously described by Wang et al., J. Clin. Invest. […] The fluid shear stress (T) was calculated using the formula: τ=η×[…] φ for μ-Slide I 0.4 Luer and τ=η×330.4 φ for μ-Slide I 0.2 Luer, where r represents viscosity of the medium and φ represents flow rate (according to the manufacturer's instructions, Ibidi). […]

PSCs = assay: PSC viability (Live/Dead Cell Imaging Kit); assay type: cell-based; settings: Yoda1 25 μM for 2 hr
Method: as §3, with “temperature.” for “temperature. The supernate was removed, and isolated stellate cells were plated on a thin-layered Matrigel-coated glass bottom culture plate (MatTek, P35G-0-14-C).”

human PSCs = assay: Human PSC activation and fibrogenic response (fat droplets, cell shape, ECM mRNA and immunostaining); assay type: cell-based
Method: as §1, §2
Mouse and human PSCs were washed with PBS (pH 7.4) and fixed with 4% paraformaldehyde for 10 minutes at room temperature. The fixed cells were treated with 0.1% Triton X-100. […]

Piezo1 [3] = molecular target: T1, Piezo1; assay: Calcium imaging of Yoda1 (Piezo1)-mediated [Ca2+]i in pancreatic acini; assay type: cell-based; settings: pancreatic acini, bath calcium 2 mM, Yoda1 25 μM
Method: Mouse pancreatic acini were isolated using a standard collagenase digestion protocol. Isolated acini were plated on a thin-layered, Matrigel-coated, glass-bottom, culture plate (MatTek, P35G-0-14-C). Freshly isolated acini were used in each experiment.
Calcium imaging in pancreatic acini was performed as previously described. The chemicals used in calcium imaging experiments included the following: Yoda1 (Tocris; 5586), GsMTx4 (Abcam; ab141871), 5′,6′-EET (Santa Cruz Biotechnology; sc-221066), AA (Millipore Sigma; A3611), HC067047 (Tocris; 4100), GSK1016790A (Millipore Sigma; G0798), RN1734 (Tocris; 3746), AACOCF3 (Tocris; 1462), YM26734 (Tocris; 2522), GF109203X (Tocris; 0741), and CCK8 (Sigma-Aldrich).

T1 sequence (E2JF22 whole entry): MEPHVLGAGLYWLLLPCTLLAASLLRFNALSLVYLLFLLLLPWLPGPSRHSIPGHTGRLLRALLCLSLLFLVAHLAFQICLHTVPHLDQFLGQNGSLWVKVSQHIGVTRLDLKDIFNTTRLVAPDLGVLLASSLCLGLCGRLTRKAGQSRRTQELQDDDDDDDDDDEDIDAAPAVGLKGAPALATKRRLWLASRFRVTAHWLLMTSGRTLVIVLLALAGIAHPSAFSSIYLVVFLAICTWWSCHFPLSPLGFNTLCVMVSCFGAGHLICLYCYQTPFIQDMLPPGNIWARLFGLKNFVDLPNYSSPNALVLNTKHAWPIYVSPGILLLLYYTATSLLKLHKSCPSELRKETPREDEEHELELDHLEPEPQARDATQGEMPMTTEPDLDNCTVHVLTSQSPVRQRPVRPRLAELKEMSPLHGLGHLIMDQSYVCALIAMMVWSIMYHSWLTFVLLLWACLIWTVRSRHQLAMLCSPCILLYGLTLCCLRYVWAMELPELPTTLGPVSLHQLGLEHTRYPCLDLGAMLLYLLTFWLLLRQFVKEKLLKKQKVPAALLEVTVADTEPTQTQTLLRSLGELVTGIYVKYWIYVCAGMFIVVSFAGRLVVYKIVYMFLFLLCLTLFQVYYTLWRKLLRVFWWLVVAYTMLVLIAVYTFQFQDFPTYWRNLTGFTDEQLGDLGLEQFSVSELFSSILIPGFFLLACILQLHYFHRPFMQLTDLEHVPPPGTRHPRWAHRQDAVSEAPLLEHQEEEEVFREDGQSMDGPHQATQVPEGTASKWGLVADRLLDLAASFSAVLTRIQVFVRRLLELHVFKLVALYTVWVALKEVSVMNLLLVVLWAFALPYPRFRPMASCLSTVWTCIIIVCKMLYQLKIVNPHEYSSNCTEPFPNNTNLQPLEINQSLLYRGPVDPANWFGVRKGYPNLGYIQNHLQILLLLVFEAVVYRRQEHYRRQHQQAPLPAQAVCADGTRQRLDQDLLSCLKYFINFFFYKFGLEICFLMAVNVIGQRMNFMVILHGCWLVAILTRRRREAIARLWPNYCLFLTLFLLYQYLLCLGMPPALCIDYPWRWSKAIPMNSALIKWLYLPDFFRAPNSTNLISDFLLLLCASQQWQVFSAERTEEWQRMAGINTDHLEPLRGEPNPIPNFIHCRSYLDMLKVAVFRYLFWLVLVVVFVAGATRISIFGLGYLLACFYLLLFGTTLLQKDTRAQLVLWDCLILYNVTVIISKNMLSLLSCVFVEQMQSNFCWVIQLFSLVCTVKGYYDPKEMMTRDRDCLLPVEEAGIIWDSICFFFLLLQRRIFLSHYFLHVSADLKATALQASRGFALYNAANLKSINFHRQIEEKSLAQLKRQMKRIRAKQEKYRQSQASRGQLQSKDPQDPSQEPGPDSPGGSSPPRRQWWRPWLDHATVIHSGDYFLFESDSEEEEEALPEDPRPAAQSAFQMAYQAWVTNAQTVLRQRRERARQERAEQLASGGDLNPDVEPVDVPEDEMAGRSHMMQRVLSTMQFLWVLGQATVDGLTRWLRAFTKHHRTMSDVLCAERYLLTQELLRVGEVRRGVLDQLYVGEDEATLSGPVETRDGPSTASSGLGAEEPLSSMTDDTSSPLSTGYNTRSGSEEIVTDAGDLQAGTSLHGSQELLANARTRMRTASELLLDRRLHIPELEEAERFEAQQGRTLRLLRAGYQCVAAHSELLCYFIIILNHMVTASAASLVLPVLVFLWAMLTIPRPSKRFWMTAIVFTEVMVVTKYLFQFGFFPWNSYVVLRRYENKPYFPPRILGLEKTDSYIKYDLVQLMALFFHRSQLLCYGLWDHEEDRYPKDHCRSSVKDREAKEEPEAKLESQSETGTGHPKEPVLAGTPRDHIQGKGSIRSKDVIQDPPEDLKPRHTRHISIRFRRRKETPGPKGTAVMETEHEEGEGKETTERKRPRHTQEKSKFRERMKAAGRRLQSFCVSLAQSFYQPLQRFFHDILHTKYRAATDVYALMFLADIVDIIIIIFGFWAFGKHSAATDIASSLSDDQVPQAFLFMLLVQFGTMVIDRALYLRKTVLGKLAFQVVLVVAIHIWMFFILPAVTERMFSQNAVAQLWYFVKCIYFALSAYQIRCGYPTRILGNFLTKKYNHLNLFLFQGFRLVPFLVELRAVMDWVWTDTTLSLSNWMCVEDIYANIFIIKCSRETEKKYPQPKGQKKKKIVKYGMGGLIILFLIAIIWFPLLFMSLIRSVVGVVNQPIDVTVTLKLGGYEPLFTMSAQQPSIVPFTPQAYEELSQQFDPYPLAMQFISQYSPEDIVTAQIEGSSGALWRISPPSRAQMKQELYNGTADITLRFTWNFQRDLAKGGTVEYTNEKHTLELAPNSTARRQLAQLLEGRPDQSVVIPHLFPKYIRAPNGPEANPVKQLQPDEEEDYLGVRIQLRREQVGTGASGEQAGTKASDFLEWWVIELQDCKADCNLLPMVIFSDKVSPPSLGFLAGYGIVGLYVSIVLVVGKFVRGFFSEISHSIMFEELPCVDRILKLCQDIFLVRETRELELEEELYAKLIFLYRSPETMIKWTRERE

With Clc1cccc(Cl)c1CSc1nnc(-c2cnccn2)s1 [Yoda1] the “Yoda1-stimulated [Ca2+]i increase in Piezo1-deleted PSCs” value (Piezo1 [1]; Yoda1 25 μM, Piezo1GFAP-KO) was “absent in Piezo1-deleted PSCs”, the “[Ca2+]i response to Yoda1” value (Piezo1 [1]; mouse PSCs) was “dose-dependent increases in [Ca^2+]i elevation” and the “trypsin activation in acinar cells from Piezo1aci-KO mice” value (pancreatic acini; Yoda1) was “did not respond to Yoda1”. The “trypsin activation (BZiPAR fluorescence)” value (pancreatic acini; Yoda1 50 μM or CCK 10 nM) was “activated trypsin in pancreatic acini over time”, the “time to trypsin activation after application” value (pancreatic acini; Yoda1 50 μM, CCK 10 nM) was at most 10 min and the “[Ca2+]i response to Yoda1” value (Piezo1 [2]) was “caused calcium overload in quiescent pancreatic stellate cells”. For the same compound, the “PSC viability and membrane integrity” value (PSCs) was “did not affect PSC viability and membrane integrity”, the “Fibronectin, collagen type I, and Piezo1 mRNA levels” value (human PSCs; Yoda1 25 μM, 24 hr) was “significantly elevated” and the TGF-β1 gene expression (human PSCs; Yoda1 25 μM, 24 hr) was “stimulation of profibrotic TGF-β1”. For the same compound, the “mean cell area and maximum diameter (mean Feret's diameter-max)” value (human PSCs; Yoda1 25 μM, 24 hr) was “significant increase in mean cell area and maximum diameter”, the “PSCs that had lost their perinuclear fat droplets” value (human PSCs; Yoda1 25 μM, within 24 hours) was about 80% and the “fibronectin and collagen type I immunostaining” value (human PSCs; after 4 days of Yoda1 25 μM) was “abundant”. For the same compound, the “[Ca2+]i response to Yoda1” value (Piezo1 [3]) was “initial transient Ca^2+ rise, followed by sustained intracellular calcium elevation”.
